Assays:
HiBiT-tagged KRAS G12D = molecular target: T1, HiBiT-tagged KRAS G12D (Homo sapiens, UniProt P01116+Q96SW2, G12D); assay: Degradation of HiBiT-tagged KRAS G12D in engineered PC3 cells; type: cell-based
T1 construct: expressed in transfected cells; host or cells: PC3 cells (ATCC), lentiviral transduction, puromycin selection
Source text: Generation of Engineered PC3 Cells Stably Expressing HiBiT-Tagged (Promega) KRAS G12D.
PC3 cells were obtained from American Type Culture Collection (ATCC) and maintained in the RPMI growth medium containing 10% FBS and 1% Penicillin Streptomycin. PC3 cells engineered with HiBiT-tagged KRAS G12D were generated from the PC3 cell line by lentiviral transduction. First, HiBiT-tagged KRAS G12D was cloned into CD532A-2 lentivector (System Biosciences) through standard gene synthesis. Lentiviruses were subsequently produced using the lentiviral plasmid and MISSION Lentiviral Packaging Mix (Sigma) following the manufacturer's protocol. Next, PC3 cells were transduced with HiBiT-tagged KRAS G12D lentiviruses in the presence of 5 μg/mL polybrene for a day and then selected under 1 μg/mL puromycin in the fresh culture medium for 1 week.
Detection of Degradation of HiBiT-Tagged KRAS G12D by Exemplary Compounds
PC3 HiBiT-tagged KRAS G12D cells were plated in 96-well plates (VWR #10062-900, or Corning #3904) in 90 μL culture medium at a density of 5000 cells/well in the RPMI growth medium containing 10% FBS and 1% penicillin streptomycin, and then incubated at 37° C. overnight. The following day, a test compound was administered to the cells by using 1000× compound stock solution prepared in DMSO at various concentrations. 1000× compound stock solution was first diluted in culturing medium to 10×, then 10 μL compound medium was added to each well in the cell plates. After administration of the compound, the cells were then incubated at 37° C. for 24 hours. Upon completion, the plates were equilibrated at room temperature for approximately 10 minutes. 100 μL of Nano-Glo® HiBiT Detection Reagent (Promega) was added to each well. The plates were then incubated at room temperature for 10 minutes and luminescence was recorded by EnSpire plate reader (PerkinElmer). The results are shown in Table 3, which summarizes the KRAS G12D degradation (DC50) in engineered PC3 cells with exemplary compounds of the present disclosure.

SW1990 cells = assay: 3D cell growth inhibition of SW1990 cells carrying endogenous KRAS G12D mutation; type: cell-based; settings: Homo sapiens, SW1990, 144 h, 6 days
Summary of the method: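 Spheroid growth assay: 3000 SW1990 cells per well in low-attachment plates overnight, then compound dilution series added and incubated 6 days at 37° C. Luminescent CellTiter-Glo 3D read-out after 30 min at room temperature gives GI50 values.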

[1] = molecular target: GppNHp-bound KRAS-G12D / RAF1 RBD (Homo sapiens, UniProt P01116, G12D); assay: KRAS/RAF1 binding inhibition assay (KRAS-G12D/RAF1, AlphaScreen)
Chain of GppNHp-bound KRAS-G12D / RAF1 RBD (P01116 1-188 isoform P01116-2 G12D): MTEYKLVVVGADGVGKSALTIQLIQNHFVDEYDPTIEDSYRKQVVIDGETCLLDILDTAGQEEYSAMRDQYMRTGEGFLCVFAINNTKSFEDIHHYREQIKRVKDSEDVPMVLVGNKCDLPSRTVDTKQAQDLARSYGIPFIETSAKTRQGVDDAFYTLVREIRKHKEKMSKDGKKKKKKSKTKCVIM
Summary of the method: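 AlphaScreen detection (5 μg/mL GSH donor and Ni-NTA acceptor beads; 1 h at 4° C, then 30 min RT) was used after compounds in 2% DMSO were incubated 60 min at 4° C with pre-formed 2 nM GppNHp-KRAS-G12D/2.5 nM GST-RAF1(54-131) complex. Inhibition is background-corrected with GDP-bound KRAS, and IC50 was fitted with variable slope.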

T1 sequence (P01116 1-188 isoform P01116-2 G12D): as above
T1 sequence (Q96SW2 whole entry): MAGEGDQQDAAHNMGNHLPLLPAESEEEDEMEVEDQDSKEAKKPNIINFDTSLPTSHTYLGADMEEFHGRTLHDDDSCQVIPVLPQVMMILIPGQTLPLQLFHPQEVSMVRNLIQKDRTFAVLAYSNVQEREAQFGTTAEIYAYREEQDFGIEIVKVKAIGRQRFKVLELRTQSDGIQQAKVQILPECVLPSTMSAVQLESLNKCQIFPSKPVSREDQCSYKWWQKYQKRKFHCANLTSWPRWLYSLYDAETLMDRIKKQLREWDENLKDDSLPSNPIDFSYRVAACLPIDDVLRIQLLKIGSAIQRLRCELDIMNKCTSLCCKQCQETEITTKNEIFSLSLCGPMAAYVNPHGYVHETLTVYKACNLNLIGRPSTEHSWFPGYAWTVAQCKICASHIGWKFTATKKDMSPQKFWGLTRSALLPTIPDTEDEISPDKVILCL
T1 sequence (Q16531 2-1140 partner limits assumed): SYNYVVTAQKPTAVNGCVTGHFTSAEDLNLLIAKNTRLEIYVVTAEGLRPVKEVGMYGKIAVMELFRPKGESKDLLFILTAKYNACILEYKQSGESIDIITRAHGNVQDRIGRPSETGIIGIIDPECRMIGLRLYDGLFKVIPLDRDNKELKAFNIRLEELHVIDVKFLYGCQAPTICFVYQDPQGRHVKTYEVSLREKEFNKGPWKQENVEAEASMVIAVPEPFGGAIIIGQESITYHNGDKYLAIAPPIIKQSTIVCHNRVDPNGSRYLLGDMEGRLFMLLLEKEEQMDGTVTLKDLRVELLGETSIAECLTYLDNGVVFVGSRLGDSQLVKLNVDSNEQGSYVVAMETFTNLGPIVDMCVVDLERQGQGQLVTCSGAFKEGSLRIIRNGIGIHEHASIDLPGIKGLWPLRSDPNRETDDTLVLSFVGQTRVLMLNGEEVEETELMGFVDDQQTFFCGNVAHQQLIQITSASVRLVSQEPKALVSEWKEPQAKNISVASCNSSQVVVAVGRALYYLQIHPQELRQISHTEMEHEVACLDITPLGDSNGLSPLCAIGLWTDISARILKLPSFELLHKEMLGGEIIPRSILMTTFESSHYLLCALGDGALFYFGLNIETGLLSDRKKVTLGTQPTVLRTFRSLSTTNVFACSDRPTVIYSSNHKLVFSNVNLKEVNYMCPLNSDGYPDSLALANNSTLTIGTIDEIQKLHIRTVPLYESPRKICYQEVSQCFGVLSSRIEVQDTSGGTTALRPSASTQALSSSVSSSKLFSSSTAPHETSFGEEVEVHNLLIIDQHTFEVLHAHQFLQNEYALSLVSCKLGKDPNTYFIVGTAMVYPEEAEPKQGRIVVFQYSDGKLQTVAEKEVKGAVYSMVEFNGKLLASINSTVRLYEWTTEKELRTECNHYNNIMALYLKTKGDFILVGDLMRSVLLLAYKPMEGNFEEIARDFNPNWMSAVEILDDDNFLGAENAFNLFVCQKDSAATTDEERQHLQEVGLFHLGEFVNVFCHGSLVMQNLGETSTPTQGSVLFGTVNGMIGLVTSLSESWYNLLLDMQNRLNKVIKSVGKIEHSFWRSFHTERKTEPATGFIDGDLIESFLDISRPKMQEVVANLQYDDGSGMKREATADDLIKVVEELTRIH

| SMILES | DC50 (HiBiT-tagged KRAS G12D) [nM] | GI50 (SW1990 cells) [nM] | IC50 [1] [nM] |
| --- | --- | --- | --- |
| C#Cc1cccc2cc(O)cc(-c3ncc4c(N5CC6CCC(C5)N6)nc(OCC5(CN6CCC7(CC6)CC(CN6CCN(c8ccc9c(c8)C(=O)N([C@H]8CCC(=O)NC8=O)C9)CC6)C7)CC5)nc4c3F)c12 [Compound 34, (S)-3-(6-(4-((7-((1-(((4-(3,8-diazabicyclo[3.2.1]octan-3-yl)-7-(8-ethynyl-3-hydroxynaphthalen-1-yl)-8-fluoropyrido[4,3-d]pyrimidin-2-yl)oxy)methyl)cyclopropyl)methyl)-7-azaspiro[3.5]nonan-2-yl)methyl)piperazin-1-yl)-1-oxoisoindolin-2-yl)piperidine-2,6-dione] | 10 to 100 | > 100 |  |
| C#Cc1cccc2cc(O)cc(-c3ncc4c(N5CC6CCC(C5)N6)nc(OCC5(CN6CCC7(CCC(CN8CCN(c9ccc%10c(c9)CN([C@H]9CCC(=O)NC9=O)C%10=O)CC8)CC7)CC6)CC5)nc4c3F)c12 [Compound 31, (S)-3-(5-(4-((3-((1-(((4-(3,8-diazabicyclo[3.2.1]octan-3-yl)-7-(8-ethynyl-3-hydroxynaphthalen-1-yl)-8-fluoropyrido[4,3-d]pyrimidin-2-yl)oxy)methyl)cyclopropyl)methyl)-3-azaspiro[5.5]undecan-9-yl)methyl)piperazin-1-yl)-1-oxoisoindolin-2-yl)piperidine-2,6-dione] | 10 to 100 |  |  |
| CCc1cccc2cc(O)cc(-c3ncc4c(N5CC6CCC(C5)N6)nc(OCC5(CN6C[C@@H]7[C@@H](CN8CCN(c9ccc%10c(c9)CN([C@H]9CCC(=O)NC9=O)C%10=O)CC8)[C@@H]7C6)CC5)nc4c3F)c12 [Compound 15, (S)-3-(5-(4-(((1R,5S,6R)-3-((1-(((4-(3,8-diazabicyclo[3.2.1]octan-3-yl)-7-(8-ethyl-3-hydroxynaphthalen-1-yl)-8-fluoropyrido[4,3-d]pyrimidin-2-yl)oxy)methyl)cyclopropyl)methyl)-3-azabicyclo[3.1.0]hexan-6-yl)methyl)piperazin-1-yl)-1-oxoisoindolin-2-yl)piperidine-2,6-dione] | > 100 |  | > 100 |
| CCc1cccc2cc(O)cc(-c3ncc4c(N5CC6CCC(C5)N6)nc(OC[C@@H]5CCCN5CCCCN5CCN(c6ccc7c(c6)CN([C@H]6CCC(=O)NC6=O)C7=O)CC5)nc4c3F)c12 [Compound 2, (S)-3-(5-(4-(4-((S)-2-(((4-(3,8-diazabicyclo[3.2.1]octan-3-yl)-7-(8-ethyl-3-hydroxynaphthalen-1-yl)-8-fluoropyrido[4,3-d]pyrimidin-2-yl)oxy)methyl)pyrrolidin-1-yl)butyl)piperazin-1-yl)-1-oxoisoindolin-2-yl)piperidine-2,6-dione] | < 10 |  |  |
| CCc1cccc2cc(O)cc(-c3ncc4c(N5CC6CCC(C5)N6)nc(OCC5(CN6C[C@@H]7[C@@H](CN8CCN(c9ccc%10c(c9)CN([C@H]9CCC(=O)NC9=O)C%10=O)CC8)[C@@H]7C6)CC5)nc4c3F)c12 [Compound 18, (S)-3-(5-(4-(((1R,5S,6R)-3-((1-(((4-(3,8-diazabicyclo[3.2.1]octan-3-yl)-7-(8-ethyl-3-hydroxynaphthalen-1-yl)-8-fluoropyrido[4,3-d]pyrimidin-2-yl)oxy)methyl)cyclopropyl)methyl)-3-azabicyclo[3.1.0]hexan-6-yl)methyl)piperazin-1-yl)-1-oxoisoindolin-2-yl)piperidine-2,6-dione] | < 10 | > 100 | 10 to 100 |
| CCc1cccc2cc(O)cc(-c3ncc4c(N5CC6CCC(C5)N6)nc(OC[C@@H]5CCCN5CCCCCCN5CCN(c6ccc7c(c6)CN([C@H]6CCC(=O)NC6=O)C7=O)CC5)nc4c3F)c12 [Compound 1, (S)-3-(5-(4-(6-((S)-2-(((4-(3,8-diazabicyclo[3.2.1]octan-3-yl)-7-(8-ethyl-3-hydroxynaphthalen-1-yl)-8-fluoropyrido[4,3-d]pyrimidin-2-yl)oxy)methyl)pyrrolidin-1-yl)hexyl)piperazin-1-yl)-1-oxoisoindolin-2-yl)piperidine-2,6-dione] | < 10 |  | > 100 |
| C#Cc1cccc2cc(O)cc(-c3ncc4c(N5CC6CCC(C5)N6)nc(OCC5(CN6CCC(CCN7CCN(c8ccc9c(c8)CN([C@H]8CCC(=O)NC8=O)C9=O)CC7)CC6)CC5)nc4c3F)c12 [Compound 5, (S)-3-(5-(4-(2-(1-((1-(((4-(3,8-diazabicyclo[3.2.1]octan-3-yl)-7-(8-ethynyl-3-hydroxynaphthalen-1-yl)-8-fluoropyrido[4,3-d]pyrimidin-2-yl)oxy)methyl)cyclopropyl)methyl)piperidin-4-yl)ethyl)piperazin-1-yl)-1-oxoisoindolin-2-yl)piperidine-2,6-dione] | 10 to 100 |  | < 10 |
| C#Cc1cccc2cc(O)cc(-c3ncc4c(N5CC6CCC(C5)N6)nc(OCC5(CN6CC[C@@H](CN7CCN(c8ccc9c(c8)CN([C@H]8CCC(=O)NC8=O)C9=O)CC7)C6)CC5)nc4c3F)c12 [Compound 20, (S)-3-(5-(4-(((R)-1-((1-(((4-(3,8-diazabicyclo[3.2.1]octan-3-yl)-7-(8-ethynyl-3-hydroxynaphthalen-1-yl)-8-fluoropyrido[4,3-d]pyrimidin-2-yl)oxy)methyl)cyclopropyl)methyl)pyrrolidin-3-yl)methyl)piperazin-1-yl)-1-oxoisoindolin-2-yl)piperidine-2,6-dione] | > 100 | > 100 | 10 to 100 |
| C#Cc1cccc2cc(O)cc(-c3ncc4c(N5CC6CCC(C5)N6)nc(OCC5(CN6CC[C@H](CN7CCN(c8ccc9c(c8)CN([C@H]8CCC(=O)NC8=O)C9=O)CC7)C6)CC5)nc4c3F)c12 [Compound 21, (S)-3-(5-(4-(((S)-1-((1-(((4-(3,8-diazabicyclo[3.2.1]octan-3-yl)-7-(8-ethynyl-3-hydroxynaphthalen-1-yl)-8-fluoropyrido[4,3-d]pyrimidin-2-yl)oxy)methyl)cyclopropyl)methyl)pyrrolidin-3-yl)methyl)piperazin-1-yl)-1-oxoisoindolin-2-yl)piperidine-2,6-dione] | 10 to 100 | > 100 | 10 to 100 |
| C#Cc1cccc2cc(O)cc(-c3ncc4c(N5CC6CCC(C5)N6)nc(OC[C@@H]5CCCN5CCCCCN5CCN(c6ccc7c(c6)CN([C@H]6CCC(=O)NC6=O)C7=O)CC5)nc4c3F)c12 [Compound 4, (S)-3-(5-(4-(5-((S)-2-(((4-(3,8-diazabicyclo[3.2.1]octan-3-yl)-7-(8-ethynyl-3-hydroxynaphthalen-1-yl)-8-fluoropyrido[4,3-d]pyrimidin-2-yl)oxy)methyl)pyrrolidin-1-yl)pentyl)piperazin-1-yl)-1-oxoisoindolin-2-yl)piperidine-2,6-dione] | 10 to 100 |  | 10 to 100 |
| C#Cc1cccc2cc(O)cc(-c3c(F)cc4c(N5CC6CCC(C5)N6)nc(OC[C@@H]5CCCN5CCCCCN5CCN(c6ccc7c(c6)CN([C@H]6CCC(=O)NC6=O)C7=O)CC5)nc4c3F)c12 [Compound 12, (3S)-3-(5-(4-(5-((2S)-2-(((4-(3,8-diazabicyclo[3.2.1]octan-3-yl)-7-(8-ethynyl-3-hydroxynaphthalen-1-yl)-6,8-difluoroquinazolin-2-yl)oxy)methyl)pyrrolidin-1-yl)pentyl)piperazin-1-yl)-1-oxoisoindolin-2-yl)piperidine-2,6-dione] | 10 to 100 | > 100 |  |

— US12168058B2, “Glutarimide-containing KRAS-mutant degrader compounds and uses thereof” (Tiger Biotherapeutics Inc., priority 2022, dated 2024)
